# Laboratory results taken from PubChem BioAssay AID1996.
# Settings: buffer; pH 7.4; 200.0 µM
row,Compound,solubility kinetic
1,Cc1ccccc1Oc1ccccc1N,3.9 µg/mL
2,COC(=O)c1ccc(COC(=O)c2cccn2C)o1,27.1 µg/mL
3,Cc1nc(/C(N)=N/OC(=O)c2ccccc2Cl)c(C(F)(F)F)o1,35.8 µg/mL
4,O=C(CNc1ccccc1F)Nc1cccc2ccccc12,10.4 µg/mL
5,COC(=O)c1ccc(CO/N=C/c2ccccc2OC)cc1,2.6 µg/mL
6,CCCc1cc(NCc2ccccn2)n2c(nc3ccccc32)c1C#N,< 0.1 µg/mL
7,COc1ccccc1NC(=O)COC(=O)c1ccccn1,> 42.9 µg/mL
8,Cc1nonc1C(=O)N1CCCC(Nc2ccc(C(C)C)cc2)C1 (centres undefined),32.8 µg/mL
9,O=C(Nc1ccc(Cl)cc1)Nc1ccc(Oc2cccnc2)nc1,0.7 µg/mL
10,COc1ccc(NC(=O)NCc2ccco2)cc1OC,37.6 µg/mL
11,CCN(CC(=O)NC(=O)NC1CCCCC1)Cc1ccccc1,47 µg/mL
12,Cc1ccc(NCc2ccc([N+](=O)[O-])s2)cc1,13.7 µg/mL
13,O=C(O)c1ccc(NC(=O)C(c2ccccc2)c2ccccc2)cc1,> 49.7 µg/mL
14,COc1ccccc1OC(C)C(=O)N1CC(=O)Nc2ccccc21 (centres undefined),> 49 µg/mL
15,O=C(CN1CCOCC1)Nc1ccc(F)cc1,> 35.7 µg/mL
16,Cc1ccc(CNC(=O)CSCc2ccccc2F)cc1,43.1 µg/mL
17,CCOc1ccccc1NC(=O)c1ccc2c(c1)C(=O)N(CC(C)C)C2=O,< 0.4 µg/mL
18,Cc1ccc(S(=O)(=O)N2CCN(c3ccccc3)CC2)c(C)c1,3 µg/mL
19,Cc1ccc(NC(=O)c2ccc(NC(=O)C3CCCCC3C(=O)O)cc2)cc1 (centres undefined),> 57.1 µg/mL
20,COc1ccc(CCC(=O)NCC(=O)OCc2ccccc2)cc1,> 49.1 µg/mL
21,Cc1cccc(NC(=O)Nc2ccc(OCc3ccccc3)cc2)n1,< 0.2 µg/mL
22,O=[N+]([O-])c1cccc2ncccc12,16.3 µg/mL
23,O=c1ccc2cc(S(=O)(=O)Nc3ccccc3F)ccc2o1,> 47.9 µg/mL
24,Cc1ccccc1NC(=O)N1CCC(C(=O)c2ccc(F)cc2)CC1,33.4 µg/mL

row,Compound,solubility kinetic
1,CCN(CC(=O)Nc1ccc(NC(C)=O)cc1)C(=O)c1c(C)nn(-c2ccc(F)cc2)c1Cl,> 70.8 µg/mL
2,COc1ccc(NC(=O)c2ccccc2SC)c(OC)c1,> 45.5 µg/mL
3,CC1=N/C(=C/c2ccco2)C(=O)O1,> 26.6 µg/mL
4,O=C(c1ccc([N+](=O)[O-])cc1)N1CCCC1,> 33 µg/mL
5,Cc1nn(C)c(C)c1CNC(=O)Nc1ccc2c(c1)OCO2,> 45.3 µg/mL
6,COc1ccc(-c2noc(CN(C)C(=O)c3ccoc3C)n2)cc1OC,43.3 µg/mL
7,O=C(O)COCC(=O)Nc1ccc2c(c1)ncn2CCc1ccccc1,> 53 µg/mL
8,O=C(CCCOc1ccc(Cl)cc1)NC1CCCCC1,1.9 µg/mL
9,O=C(CN1CCC(NC(=O)C2CC2)CC1)Nc1ccccc1[N+](=O)[O-],46.6 µg/mL
10,COc1cccc(NC(=O)c2cc3ccccc3oc2=O)c1,< 0.6 µg/mL
11,CCOc1ccc(N/C=C/C(=O)c2ccc(OC)cc2)cc1,< 0.6 µg/mL
12,CCn1c(O)c(C=NCCN2CCOCC2)c(=O)n(CC)c1=S,> 51.1 µg/mL
13,CC(NC(=O)c1cc2ccccc2oc1=O)c1ccc(O)cc1 (centres undefined),27.3 µg/mL
14,Cc1cc(C(=O)NC(Cc2c[nH]c3ccccc23)C(=O)O)c(C)o1 (centres undefined),41.6 µg/mL
15,CCN1CCN(S(=O)(=O)c2ccc(OC)cc2)CC1,36.8 µg/mL
16,CCOC(=O)C1CCCN(C(=O)CSc2nnc3nc(C)cc(C)n23)C1 (centres undefined),> 56.6 µg/mL
17,O=C(O)C1c2ccccc2C(=O)N(Cc2ccc(F)cc2)C1c1ccncc1 (centres undefined),> 56.5 µg/mL
18,N/C(CSc1ccccn1)=N\OCc1c(Cl)cccc1Cl,29 µg/mL
19,O=C(c1cccnc1)N1N=C2CCCCCC2C1(O)C(F)(F)F (centres undefined),> 49.1 µg/mL
20,O=C(/C=C/c1ccco1)NC(=S)N1CCCCC1,27.4 µg/mL
21,Cc1c(Cl)cccc1NC(=O)C1CCN(S(C)(=O)=O)CC1,16.9 µg/mL
22,Cc1ccc(N2CC(C)Cn3c2nc2c3c(=O)[nH]c(=O)n2C)cc1 (centres undefined),8.8 µg/mL
23,Cc1ccc(C)c(S(=O)(=O)N(C)Cc2cccs2)c1,9.9 µg/mL
24,Cc1ccc(CCNC(=O)CNC(=O)c2cccs2)cc1,40.3 µg/mL

row,Compound,solubility kinetic
1,Cc1ccc(CN2CCS(=O)(=O)CC2)o1,> 34.4 µg/mL
2,CCN(CC)C(=O)C1CCCN(c2ccc([N+](=O)[O-])cc2)C1 (centres undefined),> 45.8 µg/mL
3,COc1ccc(C(=O)NCc2ccc(N3CCN(C)CC3)cc2)cc1,> 50.9 µg/mL
4,CC1CCN(C(=O)c2ccc(-c3ccccc3Cl)o2)CC1,7.3 µg/mL
5,O=C1[C@@H]2[C@H]3CC[C@H](C3)[C@@H]2C(=O)N1O,27 µg/mL
6,NC(=O)COC(=O)CNC(=O)c1sc2ccccc2c1Cl,44.8 µg/mL
7,O=C(CSCc1ccc(Br)cc1)NCc1ccccn1,> 52.7 µg/mL
8,CCn1c(=O)c([N+](=O)[O-])c(N2CCSCC2)c2ccccc21,14.8 µg/mL
9,COc1ccc(Nc2nc3nonc3nc2N2CCCCC2)cc1,5.3 µg/mL
10,CCN(CC)C(=O)CSc1ncccc1-c1nc2ccccc2[nH]1,17.6 µg/mL
11,Cc1cc(C)c(C)c(S(=O)(=O)NCc2ccc(C(=O)N3CCN(C)CC3)cc2)c1C,> 64.4 µg/mL
12,O=C1CC(N2CCN(c3ccc(F)cc3)CC2)C(=O)N1Cc1ccccc1 (centres undefined),48.2 µg/mL
13,CCN(CC(=O)NCc1cccs1)C(=O)c1cccc(Cl)c1,> 50.5 µg/mL
14,CC1CCN(C(=O)COC(=O)CCC(=O)c2ccc(Cl)cc2)CC1,49.8 µg/mL
15,CCC1CCCCN1CC(O)COCc1cccc(OC)c1 (centres undefined),31.4 µg/mL
16,COC(=O)c1cc(S(=O)(=O)N2CCCC2)c(Cl)cc1Cl,41.8 µg/mL
17,Cc1ccc(C)c(C(C)NC(=O)C2CC=CCC2C(=O)O)c1 (centres undefined),> 45.2 µg/mL
18,O=C1Nc2ccccc2SC1c1ccccc1 (centres undefined),1.7 µg/mL
19,O=C(COC(=O)COc1ccccc1F)Nc1ccc(Cl)cn1,7.6 µg/mL
20,COc1cccc(NC(=O)CSc2cccc[n+]2[O-])c1,> 43.6 µg/mL
21,CCCCCn1c(=O)c(C(=O)Nc2cccc(C)c2)c(O)c2ccccc21,< 0.4 µg/mL
22,CCC(=O)Nc1c(-c2ccccc2)c(=O)c2ccccc2n1C,44.9 µg/mL
23,O=c1[nH]c(O)c(C=NC2CCCCC2)c(=O)[nH]1,> 35.6 µg/mL
24,Cc1cc(NC(=O)Cc2ccccc2[N+](=O)[O-])no1,16.6 µg/mL

row,Compound,solubility kinetic
1,COCC(C)n1c(C)cc(C(=O)COC(=O)c2cc(=O)[nH]c3ccccc23)c1C (centres undefined),11 µg/mL
2,COc1ccc(C(=O)NC(=O)COC(=O)C2CC2C)cc1 (centres undefined),13.7 µg/mL
3,CC(C)/C=C1\CCc2c([nH]c3ccccc23)C1=O,1.5 µg/mL
4,COc1ccc(S(=O)(=O)NCC2CCC(C(=O)O)CC2)cc1 (centres undefined),> 49.1 µg/mL
5,CC1CN(C(=O)C2CC(=O)N(c3ccc(Cl)cc3)C2)CC(C)O1 (centres undefined),> 50.5 µg/mL
6,CCc1cccc(NC(=O)C2CCCN(c3cnccn3)C2)c1 (centres undefined),> 46.6 µg/mL
7,COc1ccc(/C=N/OCC(=O)NCC(C)C)c(OC)c1,> 44.2 µg/mL
8,O=c1nc(-c2ccccc2Cl)c2cc(F)ccc2[nH]1,38.9 µg/mL
9,COCC1CCCN(Cc2nc(-c3ccc4c(c3)OCO4)no2)C1 (centres undefined),43.4 µg/mL
10,Cc1csc(Nc2ccc(Cl)cc2)n1,10.5 µg/mL
11,COc1ccc(N2CC(C(=O)Nc3ccncc3)CC2=O)cc1 (centres undefined),> 46.7 µg/mL
12,CN(C)C(=O)CS(=O)(=O)c1ccc(Cl)cc1,32.7 µg/mL
13,CC(=O)Nc1nc2ccccc2n1Cc1ccc(Cl)cc1,7.8 µg/mL
14,CC(C)n1c(SCC(=O)N2CCCCC2)nc2c1c(=O)n(C)c(=O)n2C,> 56.9 µg/mL
15,COc1ccc(-n2c(=S)[nH]c3ccccc3c2=S)cc1,1.4 µg/mL
16,Cc1nc([N+](=O)[O-])cn1CCCCN1C(=O)c2ccccc2C1=O,8.3 µg/mL
17,CSc1ccccc1NC(=O)CN(C)C(=O)COc1ncnc2ccccc12,45.1 µg/mL
18,O=[N+]([O-])c1ccc(NS(=O)(=O)N2CCOCC2)cc1,> 43.1 µg/mL
19,CCOC(=O)c1c(C)[nH]c(C)c1C(=O)COC(=O)Cc1ccc(OC)c(OC)c1,> 60.5 µg/mL
20,Cc1ccc(S(=O)(=O)N2CCOCC2)cc1NC(=O)c1cc2ccccc2oc1=O,1.1 µg/mL
21,CN(C(=O)c1cccc(NC(=O)Cc2ccccc2)c1)c1ccccc1,> 51.7 µg/mL
22,Cl.OC(COCCC12CC3CC(CC(C3)C1)C2)CN1CCCC1 (centres undefined),42.3 µg/mL
23,CC1([N+](=O)[O-])COC2(OC1)C(=O)Nc1ccccc12 (centres undefined),> 39.6 µg/mL
24,O=C(CN1C(=O)C2CCCCC2C1=O)Nc1nccs1 (centres undefined),> 44 µg/mL

row,Compound,solubility kinetic
1,O=[N+]([O-])c1ccc(-c2ccc(S(=O)(=O)N3CCOCC3)cc2)cc1,< 0.4 µg/mL
2,OCC1(Cc2ccccc2)CCN(Cc2cc3ccccc3o2)CC1,> 50.3 µg/mL
3,CCOC(=O)C1CCCN(c2c(NCCc3ccccc3)c(=O)c2=O)C1 (centres undefined),25.5 µg/mL
4,O=C(COC(=O)c1ccc(Cl)nc1)Nc1ccccc1OC(F)F,> 53.5 µg/mL
5,N#CCCN(Cc1ccncc1)C(=S)NC1CC2C=CC1C2 (centres undefined),46.3 µg/mL
6,CC(=O)OCC[N+](C)(C)C.[O-][Cl+3]([O-])([O-])[O-],> 36.8 µg/mL
7,Cc1ccc(-c2nc3ccccc3c(=O)n2O)cc1,24.1 µg/mL
8,Cc1noc(C)c1CNCc1ccccc1.O=C(O)C(=O)O,> 45.9 µg/mL
9,O=C(NC1CC1)c1cc2cc3ccccc3nc2s1,0.9 µg/mL
10,COc1cccc(C(=O)OCCNC(=O)c2cccnc2)c1.Cl,43.3 µg/mL
11,O=C(CCCSc1ccc(Cl)cc1)Nc1ccccc1O,8.6 µg/mL
12,Cl.NCCCCNCCCN,16.4 µg/mL
13,O=C(Nc1cccnc1Cl)c1cc(-c2ccccc2O)on1,0.9 µg/mL
14,COC(=O)Nc1ccc(S(=O)(=O)NC2CCCCC2)cc1,3.2 µg/mL
15,Cc1c(C)n(CC(O)CN2CCN(C)CC2)c2ccccc12 (centres undefined),43.3 µg/mL
16,CC1CCN(CCC(=O)Nc2ccc(F)c(F)c2)CC1,> 42.3 µg/mL
17,CC(=O)O.CC(C)CC1NC(C(=O)O)Cc2c1[nH]c1ccccc21 (centres undefined),48.4 µg/mL
18,CC(NC(=O)C(=O)NCc1cccs1)c1ccccc1 (centres undefined),2.5 µg/mL
19,Cc1cc(C(=O)Nc2ccc(F)cc2)c2ccccc2n1,< 0.3 µg/mL
20,NC(=O)c1cccc(C(N)=O)n1,> 24.8 µg/mL
21,CC1(C)C(=O)Nc2ccccc2N1C(=O)COC(=O)Cc1ccccc1F,> 55.6 µg/mL
22,Cc1cc(C(=O)OCC(=O)N2CCCCCC2)ccc1[N+](=O)[O-],> 48.1 µg/mL
23,CN(c1ccc(C(=O)Nc2cccnc2)cc1)S(=O)(=O)c1ccccc1,> 55.1 µg/mL
